Source: PubChem BioAssay (NCI)
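Dose response: 5 concentrations. Exposure: 48 h. Format: 96-well plates. Endpoint: linear interpolation; highest concentration if not reached. GI50 is the concentration that inhibits growth by half. The concentration for full growth arrest is given as TGI.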

Tests used:
Assay in all cases: inhibition of tumour cell growth, NCI panel, 48 h
HOP-62 NSCLC = system: HOP-62 NSCLC
OVCAR-8 ovarian = system: OVCAR-8 ovarian
EKVX NSCLC = system: EKVX NSCLC
U251 CNS = system: U251 CNS
UACC-257 melanoma = system: UACC-257 melanoma
HCT-116 colon = system: HCT-116 colon
OVCAR-5 ovarian = system: OVCAR-5 ovarian
M14 melanoma = system: M14 melanoma
OVCAR-4 ovarian = system: OVCAR-4 ovarian
SK-MEL-5 melanoma = system: SK-MEL-5 melanoma

Compound | TGI (HOP-62 NSCLC) [µM] | TGI (OVCAR-8 ovarian) [µM] | TGI (EKVX NSCLC) [µM] | TGI (U251 CNS) [µM] | TGI (UACC-257 melanoma) [µM] | TGI (HCT-116 colon) [µM] | TGI (OVCAR-5 ovarian) [µM] | TGI (M14 melanoma) [µM] | GI50 (HOP-62 NSCLC) [µM] | GI50 (OVCAR-4 ovarian) [µM] | TGI (OVCAR-4 ovarian) [µM] | GI50 (OVCAR-8 ovarian) [µM] | GI50 (SK-MEL-5 melanoma) [µM] | TGI (SK-MEL-5 melanoma) [µM] | GI50 (U251 CNS) [µM] | GI50 (UACC-257 melanoma) [µM] | GI50 (HCT-116 colon) [µM] | GI50 (OVCAR-5 ovarian) [µM] | GI50 (M14 melanoma) [µM] | GI50 (EKVX NSCLC) [µM]
CCc1cc(CCC(=O)Nc2ccccc2[N+](=O)[O-])[nH]c(=S)n1 | > 100 | > 100 | > 100 | > 100 | > 100 | > 100 | > 100 | > 100 | – | – | – | – | – | – | – | – | – | – | – | –
CCn1c(-c2nonc2N)nc2c(C#CC(C)(C)O)ncc(OC[C@H]3CCCNC3)c21 | 72.7 | 82.2 | – | 21.9 | 41.2 | > 95.9 | 58.4 | 37.7 | 23.3 | 31.4 | 92.2 | 16.1 | 14.3 | 31.2 | 0.533 | 20.8 | 12.9 | 27.6 | 14.8 | –
CCOC(=O)c1cc(-c2ccccc2)[nH]c1N/N=C/c1ccc(Cl)cc1 | > 100 | > 100 | > 100 | > 100 | > 100 | > 100 | > 100 | – | 87.3 | 70.9 | > 100 | > 100 | 28.4 | > 100 | > 100 | > 100 | 47.6 | > 100 | – | 36
COC(=O)c1cc2c3ccccc3[nH]c2c2sccc12 | 39.8 | > 100 | > 100 | 34 | > 100 | > 100 | > 100 | – | 11.2 | 26.5 | 76.9 | 38.3 | 16.3 | 35.4 | 14.3 | 89.6 | 34.1 | 23.1 | – | 4.12
OCCNc1nc(Nc2ccc(Cl)c(Cl)c2)nc2ccccc12 | 19.5 | 17.6 | – | 15.5 | 23.1 | 14.6 | 6.22 | – | 5.39 | 4.64 | 18.4 | 4.79 | 4.75 | 17.7 | 3.7 | 11.1 | 3.52 | 2.21 | – | –
CCCN(CCC)c1ccc(/C=N/NC(=O)c2cccnc2)c(OC)c1 | > 100 | > 100 | 59.2 | > 100 | 67.6 | > 100 | > 100 | – | 31.3 | 23.5 | 82.8 | 29.9 | 14.3 | 28.1 | 23.2 | 20.7 | 22.7 | 26.5 | – | 16.9
O=C(CCn1[nH]c(=O)c(Cl)c(Cl)c1=O)NNC(=O)C[n+]1ccccc1 | > 100 | > 100 | > 100 | – | – | – | > 100 | > 100 | – | – | > 100 | – | – | > 100 | – | – | – | – | – | –
C/C=C(\CCOS(=O)(=O)c1ccc(C)cc1)[Si](C)(C)C | – | > 100 | > 100 | > 100 | > 100 | > 100 | > 100 | > 100 | – | – | – | – | – | > 100 | – | – | – | – | – | –
